Data from PubChem BioAssay (NCI).
Where “and” joins values, the source holds several entries; their conditions need not be identical. Equal values may be shown once.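 Test compounds were applied to cells in 96-well plates for 48 hours at 5 doses. Here, GI50 denotes the concentration required for 50% inhibition of growth. TGI: concentration producing complete growth inhibition.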

Assays:
Assay in all cases: NCI-60 cell line screen, 48 h
CAKI-1 renal = system: CAKI-1 renal
UACC-62 melanoma = system: UACC-62 melanoma
SK-MEL-28 melanoma = system: SK-MEL-28 melanoma
LOX IMVI melanoma = system: LOX IMVI melanoma
MCF7 breast = system: MCF7 breast
DU-145 prostate = system: DU-145 prostate
HS 578T breast = system: HS 578T breast
ACHN renal = system: ACHN renal
SK-OV-3 ovarian = system: SK-OV-3 ovarian
HL-60(TB) leukemia = system: HL-60(TB) leukemia

SMILES	GI50 (CAKI-1 renal)	TGI (CAKI-1 renal)	GI50 (UACC-62 melanoma)	TGI (UACC-62 melanoma)	GI50 (SK-MEL-28 melanoma)	TGI (SK-MEL-28 melanoma)	GI50 (LOX IMVI melanoma)	TGI (LOX IMVI melanoma)	GI50 (MCF7 breast)	TGI (MCF7 breast)	GI50 (DU-145 prostate)	TGI (DU-145 prostate)	GI50 (HS 578T breast)	TGI (HS 578T breast)	GI50 (ACHN renal)	GI50 (SK-OV-3 ovarian)	TGI (SK-OV-3 ovarian)	GI50 (HL-60(TB) leukemia)	TGI (HL-60(TB) leukemia)	TGI (ACHN renal)
COC1C(O)CC(OC2CC(OC3CC(O[C@@H]4C(=O)c5c(cc6cc(OC7CC(OC8CC(O)C(O)C(C)O8)C(O)C(C)O7)c(C)c(O)c6c5O)CC4[C@H](OC)[C@@H](O)C(C)=O)OC(C)C3O)OC(C)C2O)OC1C (stereo not given in full)	0.749 µM	> 33.3 µM	0.00977 µM	0.036 µM	0.014 µM	0.396 µM	0.0067 µM	0.0325 µM	0.00649 µM	> 33.3 µM	0.0127 µM	> 33.3 µM	0.0307 µM	> 33.3 µM	0.025 µM	0.0211 µM	> 33.3 µM	0.0236 µM	6.94 µM	–
CN[C@H]1CC[C@]23C[C@]24CC[C@]2(C)[C@@H]([C@H](C)N(C)C)CC[C@@]2(C)[C@@H]4CC[C@H]3C1(C)C	–	45.9 µM	–	32.1 µM	–	25.8 µM	–	18.9 µM	–	36.2 µM	–	28.4 µM	–	48 µM	–	–	38.2 µM	–	36.3 µM	31 µM
CNC(=S)N(C1CCCCC1)C1CCCCC1	–	> 100 µM	–	> 100 µM	–	> 100 µM	–	> 100 µM	–	> 100 µM	–	> 100 µM	–	98.8 µM	–	–	> 100 µM	–	> 100 µM	> 100 µM
O=C(Nc1ccc(-n2ccc3c(NC(=O)c4ccccc4)nccc32)cc1)c1ccc(N2CCOCC2)c(C(F)(F)F)c1	0.0565 µM	15.7 µM	0.331 µM	21.7 µM	0.275 µM	> 47.4 µM	0.0334 µM	7.06 µM	0.0734 µM	25 µM	0.105 µM	> 87.6 µM	1.81 µM	> 76.5 µM	0.106 µM	0.509 µM	28.2 µM	1.01 µM	> 100 µM	22.8 µM
COc1ccc(C(=O)c2cc(C)c(OC)c(C)c2)c(OC)c1N(C(=O)CCl)C(=O)CCl	0.0414 µM	33.5 µM	0.067 µM	23.5 µM	0.168 µM	25.3 µM	0.0731 µM	2.66 µM	0.0657 µM	> 38.6 µM	0.0388 µM	16.8 µM	0.0333 µM	> 100 µM	0.0773 µM	0.0514 µM	> 83.8 µM	0.0316 µM	0.106 µM	36.7 µM
NC(N)=NC(N)=Nc1ccc(S(N)(=O)=O)cc1	–	> 100 µM	–	> 100 µM	–	> 100 µM	–	> 100 µM	–	> 100 µM	–	> 100 µM	–	> 100 µM	–	–	> 100 µM	–	> 100 µM	> 100 µM
Cc1ccccc1C[P+](c1ccccc1)(c1ccccc1)c1ccccc1	23.6 µM	> 100 µM	0.757 µM	31.6 µM	2.1 µM	44 µM	1.09 µM	> 100 µM	0.649 µM	39.6 µM	2.18 µM	> 100 µM	2.13 µM	33.7 µM	7.28 µM	1.64 µM	9.27 µM	1.58 µM	5.75 µM	> 100 µM
CSC1SCC2C(=O)N(C)C(C(C)C)C(=O)OCC(NC(=O)c3cnc4ccccc4n3)C(=O)NC(C)C(=O)N(C)C1C(=O)N(C)C(C(C)C)C(=O)OCC(NC(=O)c1cnc3ccccc3n1)C(=O)NC(C)C(=O)N2C (stereo not given)	< 0.001 µM	–	< 0.001 µM	–	< 0.001 µM	–	< 0.001 µM	–	< 0.001 µM	–	< 0.001 µM	–	< 0.001 µM	0.00282 µM and 0.00359 µM	< 0.001 µM and 0.00186 µM and 0.0075 µM	0.00174 µM	–	< 0.001 µM	–	–
C#CCN(Cc1nc2cc(C(F)(F)F)ccc2nc1-c1ccccc1)c1ccc(F)cc1	62.2 µM	92.2 µM	25.5 µM	> 100 µM	44.2 µM	> 100 µM	30.5 µM	97.8 µM	23.2 µM	> 100 µM	39.4 µM	> 100 µM	34.7 µM	> 100 µM	36 µM	33.4 µM	> 100 µM	21.8 µM	> 100 µM	> 100 µM
Cc1cc(C)c(O)c(CNCCCNCc2cc(C)cc(C)c2O)c1	5.45 µM	18.7 µM	1.89 µM	3.43 µM	1.65 µM	3.19 µM	1.52 µM	2.88 µM	1.67 µM	3.36 µM	5.19 µM	17.7 µM	2.05 µM	5.03 µM	3.55 µM	3.62 µM	13.6 µM	2.33 µM	4.75 µM	10.8 µM
COC(=O)CCCNC(=O)C(=O)c1c(O)c(O)c(C(C)C)c2cc(C)c(-c3c(C)cc4c(C(C)C)c(O)c(O)c(C(=O)C(=O)NCCCC(=O)OC)c4c3O)c(O)c12	1.51 µM	> 32.5 µM	0.657 µM	2.07 µM	1.1 µM	6.92 µM	0.537 µM	1.48 µM	0.641 µM	4.71 µM	0.556 µM	3.74 µM	0.975 µM	11.6 µM	0.21 µM	0.855 µM	2.57 µM	0.931 µM	6.76 µM	4.09 µM
COCC(=O)NC/C=C/c1ccc2ncnc(Nc3ccc(Oc4ccc(C)nc4)c(C)c3)c2c1	3.31 µM	49.5 µM	10.6 µM	34 µM	12.9 µM	30.6 µM	15 µM	33.8 µM	4.11 µM	32.5 µM	9.54 µM	> 100 µM	17.2 µM	56.1 µM	3.98 µM	0.295 µM	4.52 µM	21.9 µM	59 µM	69.3 µM
CN(C)C1C(=O)C(C(N)=O)=C(O)C2(O)C(=O)C3=C(O)c4c(O)cccc4C(C)(O)C3CC12 (stereo not given)	–	> 100 µM	31.7 µM and 90.9 µM	> 100 µM	–	> 100 µM	–	76.5 µM and > 100 µM	–	> 100 µM	–	> 100 µM	–	> 100 µM	39.9 µM and 82.7 µM	–	> 100 µM	24.5 µM and 82.9 µM	53.2 µM and > 100 µM	> 100 µM
CN1CCN(Cc2ccc(NC(=O)c3cccc(C#Cc4c(N)ncc5ccc(F)cc45)c3)cc2C(F)(F)F)CC1	0.727 µM	1.43 µM	0.698 µM	1.4 µM	0.79 µM	1.53 µM	0.597 µM	1.25 µM	0.768 µM	1.53 µM	0.838 µM	1.59 µM	0.627 µM	1.97 µM	0.509 µM	1.19 µM	2.99 µM	0.626 µM	1.88 µM	1.1 µM
O=C1c2ccccc2-c2c1c1ccc([N+](=O)[O-])cc1c(=O)n2CCCn1ccnc1	0.172 µM	0.807 µM	0.0116 µM	0.0348 µM	0.352 µM	10.8 µM	0.152 µM	0.33 µM	< 0.018 µM	4.24 µM	< 0.0152 µM	0.0542 µM	0.605 µM	10.2 µM	–	9.63 µM	> 39.5 µM	1.09 µM	3.84 µM	0.704 µM
CCN(CC)c1ccc(/C=N/NC(=O)c2ccccc2Nc2ccnc(C(F)(F)F)c2)c(O)c1	0.0577 µM	0.387 µM	0.206 µM	0.852 µM	0.243 µM	> 100 µM	0.0837 µM	–	0.248 µM	> 100 µM	0.134 µM	> 100 µM	1.11 µM	> 51.6 µM	0.0834 µM	0.169 µM	> 100 µM	0.162 µM	0.518 µM	> 24.6 µM
NC(Cc1c[nH]c2cc(F)ccc12)C(=O)O (stereo not given)	–	> 2500 µM	1700 µM	> 2500 µM	1150 µM	> 2500 µM	820 µM	> 2500 µM	1290 µM	> 2500 µM	903 µM	> 2500 µM	1780 µM	> 2500 µM	1640 µM	877 µM	> 2500 µM	951 µM	> 2500 µM	> 2500 µM
